Measurements taken from patent US20260102407A1, “TREATMENT METHODS” (priority 2020, published 2026).

Tests used:
HMEC-1 [1] = test: Endothelial proliferation assay using the xCELLigence system; format: cell-based, human; settings: HMEC-1, 5% FBS, 79 h; for serum-inducible endothelial proliferation (xCELLigence cell index): 0.2-1 μM
Method: Endothelial proliferation assay using the xCELLigence system. HMEC-1 proliferation was evaluated using the xCELLigence System (Roche, Castle Hill). Briefly, HMEC-1 (5×10^3 cells/well) were seeded in a 96-well E-plate and inserted into the xCELLigence RTCA station (Roche). Cells were serum-deprived for 24 h in MCDB131 medium which contained 10 ng/ml EGF (Sigma-Aldrich) and 1 μg/ml hydrocortisone (Sigma-Aldrich) then treated with compound (0.2-1 μM) in medium containing 5% FBS, 10 ng/ml EGF (Sigma-Aldrich) and 1 μg/ml hydrocortisone (Sigma-Aldrich). Cell growth was monitored automatically every 15 min by xCELLigence system. Cell index (CI) represents a quantitative measure of each well cell growth. In this system, CI a unitless parameter that reports impedance of electron flow caused by adherent cells.

HMEC-1 [2] = test: Endothelial network formation assay on Matrigel; format: cell-based, human; settings: for endothelial network (tubule) formation on Matrigel: 3 μM, 1% FBS, 50 ng/ml FGF-2, 2, 4, 6 and 24 h
Method: Endothelial network formation assay. HMEC-1 (4×10^4 cells/well) in MCDB131 containing 1% FBS and compound (1 or 3 μM) or curcumin (1-40 μM) and 50 ng/ml FGF-2 were added to 96-well plates coated overnight at 4° C. with 100 μl of growth factor-reduced reconstituted basement membrane matrix (Matrigel, cat. 354230, Corning, NY). Network formation was observed over subsequent hours and photographed under 4× or 10× objective using an Olympus CKX41 microscope.

[3] = target: T1, Recombinant human His-MEK1 (Homo sapiens, UniProt Q02750); test: SPR (Biacore T200) on immobilised His-MEK1; format: binding; settings: 15° C.; 20 mM HEPES, 150 mM NaCl, 5% DMSO pH 7.4
T1 construct: purchased ThermoFisher Scientific PV3303
Method: (§1) SPR. SPR was performed on a Biacore T200. The active and reference flow cells of a Xantec NIHMC Ni sensor chip were conditioned with 0.5M NaEDTA followed by 5 mM NiCl2 in immobilisation buffer (20 mM HEPES, 150 mM NaCl, pH 7.4). Recombinant human His-MEK1 and His-MEK2 (500 nM, ThermoFisher Scientific, cat. PV3303 and PV3615, respectively) were injected for 15 min at 10 μl min^−1 over separate active flow cells. All immobilisation was carried out at 25° C. Following immobilisation, the temperature was lowered to 15° C., and the buffer changed to 20 mM HEPES, 150 mM NaCl, 5% DMSO pH 7.4. Samples of PD98059 (2.5-30 μM in running buffer) and BT2 (1.25-15 μM) were injected at a flow rate of 30 μl min^−1 over immobilised MEK1 and MEK2. Solvent correction was applied to the data using a DMSO standard curve. Data were analysed using the Biacore T200 Evaluation software. Prior to SPR, limits of compound solubility were determined using ^1H 1D NMR.

[4] = target: T2, Recombinant human His-MEK2 (Homo sapiens, UniProt P36507); test: SPR (Biacore T200) on immobilised His-MEK2; format: binding; settings: 15° C.; 20 mM HEPES, 150 mM NaCl, 5% DMSO pH 7.4
T2 construct: purchased ThermoFisher Scientific PV3615
Method: as §1

[5] = Solubility on dilution in medium containing serum; format: physicochemical; settings: dilution in medium containing serum
FosB/ΔFosB = test: Western blot, serum-inducible FosB/ΔFosB expression in HMEC-1; format: cell-based, human; settings: 30 μM compound, 10% FBS 1 h
Method: (§2) Western blot analysis with extracts of cells treated with serum. HMEC-1 (80-90% confluency) were arrested in serum-free MCDB131 medium without EGF or hydrocortisone for 20 h. Cells were treated with 30 μM compound in serum-free MCDB131 medium for 4 h, and the medium was changed to complete medium (with 10% FBS with EGF and hydrocortisone) with 30 μM compound for 1 h. Total protein was harvested as previously described in radioimmunoprecipitation (RIPA) lysis buffer with protease inhibitors (Li, Y., et al., Int J Cardiol 220, 185-191 (2016)). Proteins were resolved on 4-20% (w/v) sodium dodecyl sulfate (SDS)-polyacrylamide gradient gels (Bio-Rad Mini-PROTEAN TGX) and transferred to Immobilon-P PVDF membranes (Millipore, USA). Membranes were blocked with 5% skim milk and incubated with rabbit monoclonal FosB (cat. 2251, 1:1000, Cell Signaling, USA), rabbit monoclonal c-Fos antibodies (cat. 2250, 1:1000, Cell Signaling, USA) at 4° C. overnight or mouse monoclonal […] antibodies (cat. A5316, 1:30000, Sigma-Aldrich) at 22° C. for 15 min then incubated with a horseradish peroxidase conjugated secondary goat anti-rabbit (cat. P0448, 1:1000, DAKO Cytomation, Denmark) or goat anti-mouse (cat. P0447, 1:1000, DAKO Cytomation, Denmark) antibodies for 1 h. Chemiluminescence was detected using the Western Lightning Chemiluminescence system (PerkinElmer, USA) and ImageQuant™ LAS 4000 biomolecular imager (GE Healthcare Life Sciences, USA). Band intensity in images generated with the LAS 4000 on automatic exposure with sensitivity/resolution setting high was quantified using NIH ImageJ.

c-Fos = test: Western blot, serum-inducible c-Fos expression in HMEC-1; format: cell-based, human; settings: 30 μM compound, 10% FBS 1 h
Method: as §2

BAEC = test: Endothelial dual chamber migration assay toward VEGF-A165; format: cell-based, bovine; settings: 1 μM; Transwell; 10% FBS and 50 ng/ml VEGF-A165 in lower chamber; 24 h
Method: Endothelial dual chamber migration assay. BAEC (6×10^3 cells/well) suspended in DMEM supplemented with 10% FBS were seeded into the upper chamber of 24-well plates fitted with Millicell cell culture inserts (cat. PI8P01250, Millipore). After 48 h, the medium was changed to DMEM supplemented with 0.01% FBS and the cells were incubated for 48 h. Compounds prepared in DMEM containing 0.01% FBS were added to the upper chamber. VEGF-A165 (50 ng/ml, Sigma, cat. V7259) in medium containing 10% FBS was added to the lower chamber. After 24 h, medium from the upper chamber was removed and a cotton swab was used to remove non-migrated cells and excess liquid. The insert was placed in 70% ethanol for 10 min to allow cell fixation and membranes were dried for 10-15 min. Filters were excised and placed on slides. Mounting medium (Fluoroshield™ with DAPI, Sigma, cat. 6057) was added and specimens were visualized using an EVOS FL microscope.

HMEC-1 [6] = test: Endothelial repair following in vitro injury (scratch assay); format: cell-based, human; settings: 0.6 μM, 5% FBS, 48 h
Method: Endothelial repair following in vitro injury. HMEC-1 (90-100% confluency) in 6-well plates were washed with PBS, and treated with 0.6 μM compound in MCDB131 containing 5% FBS. A sterile pointed toothpick was used to scrape the cell monolayer and the wells photographed under 4× objective at 0 h and 48 h. Cell regrowth in the denuded zone was determined using Image-Pro Plus (Cybernetics, USA).

p-SAPK/JNK = test: Western blot, IL-1β-inducible p-SAPK/JNK in HMEC-1; format: cell-based, human; settings: 1-30 μM
Method: (§3) Western blot analysis with extracts of cells treated with IL-13. HMEC-1 (80-90% confluency) were arrested in serum-free MCDB131 medium (Invitrogen, MD) without any growth factor for 48 h. Cells were treated with 30 μM compound in serum-free medium for 4 h, and incubated with 20 ng/ml IL-1β (Sigma, cat. SRE3083) in serum-free medium with the same concentration of compound for up to 4 h, unless otherwise indicated. Total protein was harvested as previously described using RIPA buffer with protease inhibitors. Proteins were resolved on 4-20% (w/v) SDS-polyacrylamide gradient gels and transferred to Immobilon-P PVDF membranes. […] Chemiluminescence was detected using the Western Lightning Chemiluminescence system and ImageQuant™ LAS 4000 biomolecular imager. Band intensity in images generated with the LAS 4000 using the same settings were quantified by NIH ImageJ.

p-p38 = test: Western blot, IL-1β-inducible p-p38 in HMEC-1; format: cell-based, human; settings: 1-30 μM
Method: as §3

T2 sequence (P36507 whole entry): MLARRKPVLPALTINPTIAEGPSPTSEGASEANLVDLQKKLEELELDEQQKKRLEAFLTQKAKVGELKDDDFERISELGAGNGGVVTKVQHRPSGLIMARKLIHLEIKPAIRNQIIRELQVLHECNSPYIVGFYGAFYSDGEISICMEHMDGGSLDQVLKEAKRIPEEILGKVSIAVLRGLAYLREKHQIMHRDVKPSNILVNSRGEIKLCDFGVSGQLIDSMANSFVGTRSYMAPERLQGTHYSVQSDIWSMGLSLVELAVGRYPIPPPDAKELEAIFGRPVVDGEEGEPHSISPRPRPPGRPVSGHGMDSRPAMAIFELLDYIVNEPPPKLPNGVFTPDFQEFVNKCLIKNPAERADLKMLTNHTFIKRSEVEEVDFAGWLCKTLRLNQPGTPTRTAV
T1 sequence (Q02750 whole entry): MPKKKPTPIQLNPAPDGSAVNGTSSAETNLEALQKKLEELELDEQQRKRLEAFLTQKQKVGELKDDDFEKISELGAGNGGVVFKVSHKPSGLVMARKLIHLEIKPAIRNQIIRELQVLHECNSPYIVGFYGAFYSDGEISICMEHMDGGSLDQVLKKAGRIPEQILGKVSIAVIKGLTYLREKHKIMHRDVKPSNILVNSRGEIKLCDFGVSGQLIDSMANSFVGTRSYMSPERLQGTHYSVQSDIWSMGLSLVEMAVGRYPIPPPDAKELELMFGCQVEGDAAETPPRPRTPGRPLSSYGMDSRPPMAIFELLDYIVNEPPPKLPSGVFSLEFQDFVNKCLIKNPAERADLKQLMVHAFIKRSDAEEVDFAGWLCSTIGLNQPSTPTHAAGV

binding to His-MEK1 (SPR) [3] | binding to His-MEK2 (SPR) [4] | SMILES | serum-inducible FosB/ΔFosB expression (Western blot) (FosB/ΔFosB) | serum-inducible endothelial proliferation (xCELLigence cell index) (HMEC-1 [1]) | migration of BAEC toward VEGF-A165 (BAEC) | endothelial regrowth after mechanical injury in vitro (HMEC-1 [6]) | other results
no appreciable binding | no appreciable binding | CCN1C(=O)c2cc(NC(=O)COC)ccc2Oc2ccccc21 [BT2-MeOA, N-(10-ethyl-11-oxo-10,11-dihydrodibenzo[b,f][1,4]oxazepin-2-yl)-2-methoxyacetamide] | – | – | – | – | inhibition of serum-inducible proliferation compared with BT2 (HMEC-1 [1]; 0.4 or 0.8 μM): Neither BT2-MeOA nor any other BT2 analogue had the ability to inhibit; inhibition of network formation on Matrigel (FIG. 5B) (HMEC-1 [2]; 1 μM): Neither BT2-MeOA nor any other BT2 analogue had the ability to inhibit; solubility relative to BT2 and analogues [5]: greater solubility than BT2
no appreciable binding | no appreciable binding | CCCN1C(=O)c2cc(NC(=O)OCC)ccc2Oc2ccccc21 [BT2-Pr, ethyl (11-oxo-10-propyl-10,11-dihydrodibenzo[b,f][1,4]oxazepin-2-yl)carbamate] | – | – | – | – | –
– | – | COCCOC(=O)NC(=O)Nc1ccc(C(=NO)c2ccc(Cl)cc2)cc1 [Compound T4] | inhibited less potently | inhibited serum-inducible proliferation at concentrations in a dose-dependent manner | inhibited migration | blocked this reparative response | serum-inducible c-Fos expression (Western blot) (c-Fos): inhibit; endothelial network (tubule) formation on Matrigel (HMEC-1 [2]): inhibited network formation
– | – | COC(=O)Nc1nc2ccc(C(=O)c3ccc(F)cc3)cc2[nH]1 [Compound T6, Flubendazole, reference compound] | inhibited less potently | inhibited serum-inducible proliferation at concentrations in a dose-dependent manner | inhibited migration | blocked this reparative response | serum-inducible c-Fos expression (Western blot) (c-Fos): inhibit; endothelial network (tubule) formation on Matrigel (HMEC-1 [2]): inhibited network formation
– | – | Nc1ccc(C(=O)c2ccc(F)cc2)cc1 [Compound T7, (4-aminophenyl)(4-fluorophenyl)methanone] | no inhibition | no inhibitory effect | – | no such effect | –
– | – | COc1cc(/C=C/C(=O)CC(=O)/C=C/c2ccc(O)c(OC)c2)ccc1O [curcumin, reference compound] | – | – | – | – | endothelial network formation (HMEC-1 [2]; 1 μM, after 4 h): no inhibition; inhibition at 30 µM (HMEC-1 [2]; Homo sapiens, 30 μM, after 4 h): ~25%; inhibition at 40 µM (HMEC-1 [2]; Homo sapiens, 40 μM, after 4 h): ~50%
– | – | Cc1ccc(NC(=O)c2ccc(CN3CCN(C)CC3)cc2)cc1Nc1nccc(-c2cccnc2)n1 [imatinib] | – | – | neither BT3, nor PD98059 (allosteric MEK inhibitor), imatinib (tyrosine kinase inhibitor) or tofacitinib (Janus kinase inhibitor) had an inhibitory effect | – | –
– | – | C[C@@H]1CCN(C(=O)CC#N)C[C@@H]1N(C)c1ncnc2[nH]ccc12 [tofacitinib] | – | – | neither BT3, nor PD98059 (allosteric MEK inhibitor), imatinib (tyrosine kinase inhibitor) or tofacitinib (Janus kinase inhibitor) had an inhibitory effect | – | –

SMILES | binding to His-MEK1 (SPR) [3] | binding to His-MEK2 (SPR) [4] | serum-inducible FosB/ΔFosB expression (Western blot) (FosB/ΔFosB) | serum-inducible endothelial proliferation (xCELLigence cell index) (HMEC-1 [1]) | migration of BAEC toward VEGF-A165 (BAEC) | endothelial regrowth after mechanical injury in vitro (HMEC-1 [6]) | other results
COc1cccc(-c2cc(=O)c3ccccc3o2)c1N [PD98059, reference compound] | bound to both His-MEK1 and His-MEK2 | bound to both His-MEK1 and His-MEK2 | – | – | neither BT3, nor PD98059 (allosteric MEK inhibitor), imatinib (tyrosine kinase inhibitor) or tofacitinib (Janus kinase inhibitor) had an inhibitory effect | – | IL-1β-inducible p-SAPK/JNK (p-SAPK/JNK): no effect; IL-1β-inducible p-p38 (p-p38): no effect
